Data published in US20170275298A1, “INHIBITORS OF THE RENAL OUTER MEDULLARY POTASSIUM CHANNEL” (Merck Sharp & Dohme Corp., priority 2014, published 2017).
pIC50: −log10 of the molar value.

Target: T1, hROMK (hKir1.1) (Homo sapiens, UniProt P48048)
T1 construct: expressed in transfected cells
T1 sequence (P48048 1-391): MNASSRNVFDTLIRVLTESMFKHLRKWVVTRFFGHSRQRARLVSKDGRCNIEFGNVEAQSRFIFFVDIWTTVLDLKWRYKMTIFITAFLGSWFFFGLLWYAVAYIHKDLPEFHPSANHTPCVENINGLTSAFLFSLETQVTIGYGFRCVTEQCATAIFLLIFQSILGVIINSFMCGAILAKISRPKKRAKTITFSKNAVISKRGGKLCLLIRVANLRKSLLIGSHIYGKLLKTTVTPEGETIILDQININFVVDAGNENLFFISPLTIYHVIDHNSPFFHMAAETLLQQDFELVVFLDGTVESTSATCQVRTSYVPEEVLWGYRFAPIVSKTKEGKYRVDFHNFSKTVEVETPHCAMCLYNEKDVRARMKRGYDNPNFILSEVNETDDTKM
Assay: Thallium Flux Assay (ROMK channel functional thallium flux assay)
Type: cell-based
Settings: HEK293 cells stably expressing hROMK (hKir1.1); FluxOR thallium flux, FLIPR-Tetra, 30 min compound incubation; read-out: ROMK TI IC50
Experimental: The following Thallium Flux Assay was performed on each of the final product compounds in the Examples.
HEK293 cells stably expressing hROMK (hKir1.1) were grown at 37° C. in a 10% CO2 humidified incubator in complete growth media: Dulbecco's Modified Eagle Medium supplemented with non-essential amino acids, Penicillin/Streptomycin/Glutamine, G418 and FBS. At >80% confluency, the media was aspirated from the flask and rinsed with 10 mL calcium/magnesium-free PBS. […] To dislodge the cell, the side of the flask was gently banged with one's hand. The cells completely titrated and then the cells were transferred to 25 mL complete media, centrifuged at 1,500 rpm for 6 min followed by resuspension in complete growth media and determine cell concentration. […] Under ideal growth conditions and appropriate tissue culture practices, this cell line is stable for 40-45 passages.
• FluxOR™ Reagent (Component A) • FluxOR™ Assay Buffer (Component B)—10× Concentrate • PowerLoad™ Concentrate (Component C)—100× Concentrate • Probenecid (Component D)—Lyophilized sample is kept at −20° C. Water soluble, 100× after solubilization in 1 mL water. […] Store at 4° C. • Thallium sulfate (Tl2SO4) Concentrate (Component G)—50 mM in water. Store at 4° C. • DMSO (dimethyl sulfoxide, Component H)—1 mL (100%)
Can be stored at room temperature • Stimulant Buffer (prepared at 5× final concentration in 1×FluxOR™ Chloride-Free Buffer): 7.5 mM thallium sulfate and 0.75 mM potassium sulfate (to give a final assay concentration of 3 mM Thallium/0.3 mM potassium). Store at 4° C. when not in use. If kept sterile, this solution is good for months.
The ROMK channel functional thallium flux assay was performed in 384 wells, using the FLIPR-Tetra instrument. HEK-hKir1.1 cells were seeded in Poly-D-Lysine microplates and kept in a 37° C.-10% CO2 incubator overnight. On the day of the experiment, the growth media was replaced with the FluxOR™ reagent loading buffer and incubated, protected from light, at ambient temperature (23-25° C.) for 90 min. The loading buffer was replaced with assay buffer±test compound followed by 30 min incubation at ambient temperature, where the thallium/potassium stimulant was added to the microplate.
1. Seed HEK-hKir1.1 cells (50 μl at 20,000 cells/well) in 384-well PDL coated Microplates 2. Allow cells to adhere overnight in humidified 37° C./10% CO2 incubator 3. Completely remove cell growth media from microplate and replace with 25 μl loading buffer 4. Incubate Microplate at room temperature, protected form light, for 90 min 5. Remove loading buffer and replace with 25 μl 1× Assay Buffer±test compound. 6. Incubate microplate at room temperature, protected from light, for 30 min 7. […] Excitation=400 nm, Emission=460 & 580 nm. Collect data for ˜10 min.
The fluorescence intensity of wells containing 3 μM of a standard control ROMK inhibitor of the present invention was used to define the ROMK-sensitive component of thallium flux. Fluorescence in the presence of test compounds was normalized to control values to provide % fluorescence change.

Compound	pIC50
COc1nccc(N2CC3(CCN(C[C@H](O)c4ccc5c(c4C)COC5=O)CC3)CC2=O)n1 [Example 31, (R)-8-(2-hydroxy-2-(4-methyl-1-oxo-1,3-dihydroisobenzofuran-5-yl)ethyl)-2-(2-methoxypyrimidin-4-yl)-2,8-diazaspiro[4.5]decan-3-one]	6.81
Cc1c([C@@H](O)CN2CCC3(CC2)CCN(c2nccnc2N)CC3)ccc2c1COC2=O [Example 122, (R)-5-(2-(9-(3-aminopyrazin-2-yl)-3,9-diazaspiro[5.5]undecan-3-yl)-1-hydroxyethyl)-4-methylisobenzofuran-1(3H)-one]	6.80
Cc1c([C@@H](O)CN2CCC3(CC2)OCCN(c2ccc(=O)n(C)n2)C3=O)ccc2c1COC2=O [Example 102, (R)-9-(2-hydroxy-2-(4-methyl-1-oxo-1,3-dihydroisobenzofuran-5-yl)ethyl)-4-(1-methyl-6-oxo-1,6-dihydropyridazin-3-yl)-1-oxa-4,9-diazaspiro[5.5]undecan-5-one]	6.46
Cc1c([C@@H](O)CN2CCC3(CC2)OCCN(c2ccncc2)C3=O)ccc2c1COC2=O [Example 26, (R)-9-(2-hydroxy-2-(4-methyl-1-oxo-1,3-dihydroisobenzofuran-5-yl)ethyl)-4-(pyridin-4-yl)-1-oxa-4,9-diazaspiro[5.5]undecan-5-one]	6.62
[2H]C([2H])(N1CCC2(CCN(c3ccc(=O)n(C)n3)C2=O)CC1)[C@@]([2H])(O)c1ccc2c(c1C)COC2=O (single isomer, unassigned) [Example 59]	6.34
Cc1c([C@@H](O)CN2CCC3(CC2)CCN(c2cncc(C(=O)O)n2)CC3)ccc2c1COC2=O [Example 121, (R)-6-(9-(2-hydroxy-2-(4-methyl-1-oxo-1,3-dihydroisobenzofuran-5-yl)ethyl)-3,9-diazaspiro[5.5]undecan-3-yl)pyrazine-2-carboxylic acid]	6.50
COc1ccnc(N2CCC3(CCN(C[C@H](O)c4ccc5c(c4C)COC5=O)CC3)CC2)n1 [Example 114, (R)-5-(1-hydroxy-2-(9-(4-methoxypyrimidin-2-yl)-3,9-diazaspiro[5.5]undecan-3-yl)ethyl)-4-methylisobenzofuran-1(3H)-one]	6.42
Cc1cc2c(cc1[C@@H](O)CN1CCC3(CC1)CCN(c1ccns1)C3=O)COC2=O [Example 68, (R)-8-(2-hydroxy-2-(6-methyl-1-oxo-1,3-dihydroisobenzofuran-5-yl)ethyl)-2-(isothiazol-5-yl)-2,8-diazaspiro[4.5]decan-1-one]	6.66
O=C1N(c2ccns2)CCC12CCN(C[C@@H](O)c1ccc(-n3cnnn3)nc1)CC2 [Example 101, (S)-8-(2-(6-(1H-tetrazol-1-yl)pyridin-3-yl)-2-hydroxyethyl)-2-(isothiazol-5-yl)-2,8-diazaspiro[4.5]decan-1-one]	6.69
COc1nccc(N2CCC3(CCN(C[C@H](O)c4ccc5c(c4C)COC5=O)CC3)C2)n1 [Example 14, (R)-5-(1-hydroxy-2-(2-(2-methoxypyrimidin-4-yl)-2,8-diazaspiro[4.5]decan-8-yl)ethyl)-4-methylisobenzofuran-1(3H)-one]	6.38
COc1cc(N2CCC3(CCN(C[C@H](O)c4ccc5c(c4C)COC5=O)CC3)C2=O)nc(OC)n1 [Example 42, (R)-2-(2,6-dimethoxypyrimidin-4-yl)-8-(2-hydroxy-2-(4-methyl-1-oxo-1,3-dihydroisobenzofuran-5-yl)ethyl)-2,8-diazaspiro[4.5]decan-1-one]	6.07
Cc1c([C@@H](O)CN2CCC3(CC2)CCN(c2ccnc(N)n2)C3=O)ccc2c1COC2=O [Example 46, (R)-2-(2-aminopyrimidin-4-yl)-8-(2-hydroxy-2-(4-methyl-1-oxo-1,3-dihydroisobenzofuran-5-yl)ethyl)-2,8-diazaspiro[4.5]decan-1-one]	6.31
Cc1c([C@@H](O)CN2CCC3(CC2)NCCN(c2ccc(=O)n(C)n2)C3=O)ccc2c1COC2=O [Example 106, (R)-9-(2-hydroxy-2-(4-methyl-1-oxo-1,3-dihydroisobenzofuran-5-yl)ethyl)-4-(1-methyl-6-oxo-1,6-dihydropyridazin-3-yl)-1,4,9-triazaspiro[5.5]undecan-5-one]	6.44
Cc1c([C@@H](O)CN2CCC3(CC2)CCN(c2ncns2)C3)ccc2c1COC2=O [Example 8, (R)-5-(2-(2-(1,2,4-thiadiazol-5-yl)-2,8-diazaspiro[4.5]decan-8-yl)-1-hydroxyethyl)-4-methylisobenzofuran-1(3H)-one]	6.28
COc1ccc(N2CCC3(CCN(C[C@H](O)c4cc(OC)c(C#N)cn4)CC3)C2)nn1 [Example 6, (S)-6-(1-hydroxy-2-(2-(6-methoxypyridazin-3-yl)-2,8-diazaspiro[4.5]decan-8-yl)ethyl)-4-methoxynicotinonitrile]	6.32

Compounds with a higher pIC50, results first:

pIC50	Compound
7.35	Cc1c([C@@H](O)CN2CCC3(CC2)CCN(c2nsc(Cl)n2)C3)ccc2c1COC2=O [Example 4, (R)-5-(2-(2-(5-chloro-1,2,4-thiadiazol-3-yl)-2,8-diazaspiro[4.5]decan-8-yl)-1-hydroxyethyl)-4-methylisobenzofuran-1(3H)-one]
7.70	Cc1c([C@@H](O)CN2CCC3(CC2)CCN(c2cnsc2)C3=O)ccc2c1COC2=O [Example 72, (R)-8-(2-hydroxy-2-(4-methyl-1-oxo-1,3-dihydroisobenzofuran-5-yl)ethyl)-2-(isothiazol-4-yl)-2,8-diazaspiro[4.5]decan-1-one]
7.19	Cc1c([C@@H](O)CN2CCC3(CC2)CCN(c2nc(Cl)ns2)C3)ccc2c1COC2=O [Example 5, (R)-5-(2-(2-(3-chloro-1,2,4-thiadiazol-5-yl)-2,8-diazaspiro[4.5]decan-8-yl)-1-hydroxyethyl)-4-methylisobenzofuran-1(3H)-one]
6.85	COc1ncc(N2CCC3(CCN(C[C@H](O)c4ccc5c(c4C)COC5=O)CC3)C2=O)cn1 [Example 40, (R)-8-(2-hydroxy-2-(4-methyl-1-oxo-1,3-dihydroisobenzofuran-5-yl)ethyl)-2-(2-methoxypyrimidin-5-yl)-2,8-diazaspiro[4.5]decan-1-one]
6.87	Cc1c([C@@H](O)CN2CCC3(CC2)CCN(c2ccc(=O)n(C(F)F)n2)C3=O)ccc2c1COC2=O [Example 55, (R)-2-(1-(difluoromethyl)-6-oxo-1,6-dihydropyridazin-3-yl)-8-(2-hydroxy-2-(4-methyl-1-oxo-1,3-dihydroisobenzofuran-5-yl)ethyl)-2,8-diazaspiro[4.5]decan-1-one]
7.41	[2H]C([2H])([2H])Oc1nccc(N2CCC3(CCN(C[C@H](O)c4ccc5c(c4C)COC5=O)CC3)C2=O)n1 [Example 39, (R)-8-(2-hydroxy-2-(4-methyl-1-oxo-1,3-dihydroisobenzofuran-5-yl)ethyl)-2-(2-methoxypyrimidin-4-yl)-2,8-diazaspiro[4.5]decan-1-one (methoxy-d3)]
7.62	Cc1c([C@@H](O)CN2CCC3(CC2)CCN(c2cc(Cl)cnn2)CC3)ccc2c1COC2=O [Example 131, (R)-5-(2-(9-(5-chloropyridazin-3-yl)-3,9-diazaspiro[5.5]undecan-3-yl)-1-hydroxyethyl)-4-methylisobenzofuran-1(3H)-one]
6.90	COc1cnc(N2CCC3(CCN(C[C@H](O)c4ccc5c(c4C)COC5=O)CC3)CC2)nc1 [Example 118, (R)-5-(1-hydroxy-2-(9-(5-methoxypyrimidin-2-yl)-3,9-diazaspiro[5.5]undecan-3-yl)ethyl)-4-methylisobenzofuran-1(3H)-one]
